Laboratory results taken from patent US20250215029A1 (Recludix Pharma, Inc., priority 2022, published 2025).

The molecules below were run against T1, pY641-STAT6 in PBMC (Homo sapiens, UniProt P42226) (assay: MSD-pSTAT-PBMC Assay (pSTAT6, IL-4 stimulated)). Conditions: PBMC, compound 3 hrs, then 1 ng/mL IL-4 for 10 min; Table 115; read-out: STAT6.
T1 construct: Cryopreserved Peripheral Blood Mononuclear Cells (PBMC) are from AllCells; host or cells: cryopreserved PBMC
T1 sequence (P42226 1-847): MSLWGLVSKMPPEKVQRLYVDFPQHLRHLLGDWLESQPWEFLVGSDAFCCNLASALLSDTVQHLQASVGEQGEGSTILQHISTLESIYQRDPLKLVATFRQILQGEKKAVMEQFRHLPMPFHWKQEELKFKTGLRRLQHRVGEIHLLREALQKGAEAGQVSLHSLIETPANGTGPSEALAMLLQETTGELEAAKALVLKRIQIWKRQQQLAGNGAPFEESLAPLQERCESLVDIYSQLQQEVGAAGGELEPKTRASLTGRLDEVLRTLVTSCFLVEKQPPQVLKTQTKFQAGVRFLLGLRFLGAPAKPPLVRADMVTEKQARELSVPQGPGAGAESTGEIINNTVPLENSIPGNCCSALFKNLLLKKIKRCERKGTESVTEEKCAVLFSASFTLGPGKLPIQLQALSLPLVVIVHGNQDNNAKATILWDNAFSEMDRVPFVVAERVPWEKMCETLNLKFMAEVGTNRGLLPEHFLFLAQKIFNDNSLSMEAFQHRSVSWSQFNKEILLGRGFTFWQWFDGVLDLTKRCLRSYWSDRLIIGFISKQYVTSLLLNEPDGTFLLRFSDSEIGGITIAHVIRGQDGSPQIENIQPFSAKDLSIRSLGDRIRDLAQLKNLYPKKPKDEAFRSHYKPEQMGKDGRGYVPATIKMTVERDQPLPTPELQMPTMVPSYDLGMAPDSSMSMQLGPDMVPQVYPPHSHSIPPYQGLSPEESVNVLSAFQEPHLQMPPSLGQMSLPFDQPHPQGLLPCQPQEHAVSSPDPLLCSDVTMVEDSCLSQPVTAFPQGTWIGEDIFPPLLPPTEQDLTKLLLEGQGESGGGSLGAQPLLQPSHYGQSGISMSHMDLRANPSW
Format: cell-based
In short: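 Inhibition of cytokine-induced STAT phosphorylation was measured in recovered human PBMC after 3 hrs compound exposure and a 10 min IL-4 (1 ng/mL) or IL-6 (10 ng/mL) challenge. MSD detection of pY641-STAT6 or pY705-STAT3 yielded IC50 values.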

| SMILES | IC50 [nM] |
| --- | --- |
| CC(C)(C)C(=O)SCCOP(=O)(OCCSC(=O)C(C)(C)C)C(F)(F)c1ccc2sc(C(=O)N[C@H]3CCC[C@H]4CC[C@@H](C(=O)N5C[C@H](c6ccccc6)[C@@H](C#N)C56CC6)N4C3=O)cc2c1 (single isomer, unassigned) [Compound 1081] | < 100 |
| CCCOC(=O)[C@H](C)NP(=O)(Oc1ccccc1)[C@@H](F)c1ccc2sc(C(=O)N[C@H]3CCCC[C@H]4CC[C@@H](C(=O)N5C[C@H](c6cccnc6)[C@@H](C#N)C56CC6)N4C3=O)cc2c1 (stereo partly shown) [Compound 364] | < 100 |
| CCCOC(=O)[C@H](C)NP(=O)(Oc1ccccc1)[C@@H](F)c1ccc2sc(C(=O)N[C@H]3CCCC[C@H]4CC[C@@H](C(=O)N5C[C@H](c6cccc(Cl)c6)[C@@H](C#N)C56CC6)N4C3=O)cc2c1 (stereo partly shown) [Compound 344] | < 100 |

Same assay, conditions: STAT6, PBMC, compound 3 hrs, then 1 ng/mL IL-4 for 10 min; Table 115

| SMILES | IC50 [nM] |
| --- | --- |
| CCCOC(=O)[C@H](C)NP(=O)(Oc1ccccc1)C(F)c1ccc2sc(C(=O)N[C@H]3CCCCC[C@H]4[C@H](O)C[C@@H](C(=O)N5CC(C#N)[C@H](c6ccccc6)C5)N4C3=O)cc2c1 (relative stereo) [Compound 270, propyl (((2-(((1R,3S,6S,11aS)-3-((rel-trans)-3-cyano-4-phenylpyrrolidine-1-carbonyl)-1-hydroxy-5-oxodecahydro-1H-pyrrolo[1,2-a]azonin-6-yl)carbamoyl)benzo [b]thiophen-5-yl)fluoromethyl) (phenoxy)phosphoryl)-L-alaninate] | 100 to 1000 |
| CCCOC(=O)[C@H](C)NP(=O)(Oc1ccccc1)C(F)c1ccc2ccc(C(=O)N[C@H]3CCCC[C@H]4CC[C@@H](C(=O)N5CCC(c6ccn(C)c(=O)c6)C5)N4C3=O)cc2c1 (stereo partly drawn) [Compound 450, propyl ((fluoro(7-(((3S,6S,10aS)-3-(3-(1-methyl-2-oxo-1,2-dihydropyridin-4-yl)pyrrolidine-1-carbonyl)-5-oxodecahydropyrrolo [1,2-a]azocin-6-yl)carbamoyl)naphthalen-2-yl)methyl)(phenoxy)phosphoryl)-L-alaninate] | 100 to 1000 |
| CCCOC(=O)[C@H](C)NP(=O)(Oc1ccccc1)[C@@H](F)c1ccc2sc(C(=O)N[C@H]3CCCC[C@H]4CC[C@@H](C(=O)N5C(=O)N(c6cncc(C)c6)C(=O)C56CC6)N4C3=O)cc2c1 (stereo partly drawn) [Compound 303, propyl (((R)-fluoro(2-(((3S,6S,10aS)-3-(6-(5-methylpyridin-3-yl)-5,7-dioxo-4,6-diazaspiro [2.4]heptane-4-carbonyl)-5-oxodecahydropyrrolo [1,2-a]azocin-6-yl)carbamoyl)benzo [b]thiophen-5-yl)methyl)(phenoxy)phosphoryl)-L-alaninate] | 100 to 1000 |
| CC(C)COC(=O)[C@H](C)NP(=O)(Oc1ccccc1)[C@@H](F)c1ccc2sc(C(=O)N[C@H]3CCCC[C@H]4CC[C@@H](C(=O)N5C[C@@H](c6cccnc6)CC56CC6)N4C3=O)cc2c1 (stereo partly drawn) [Compound 417, isobutyl (((R)-fluoro(2-(((3S,6S,10aS)-5-oxo-3-((R)-6-(pyridin-3-yl)-4-azaspiro[2.4]heptane-4-carbonyl)decahydropyrrolo[1,2-a]azocin-6-yl)carbamoyl)benzo [b]thiophen-5-yl)methyl)(phenoxy)phosphoryl)-L-alaninate] | < 100 |
| COCCOC(=O)[C@H](C)NP(=O)(Oc1ccccc1)[C@@H](F)c1ccc2sc(C(=O)N[C@H]3CCC[C@H]4CC[C@@H](C(=O)N5C[C@@H](c6cccnc6)CC56CC6)N4C3=O)cc2c1 (stereo partly drawn) [Compound 480, 2-methoxyethyl (((R)-fluoro(2-(((3S,6S,9aS)-5-oxo-3-((R)-6-(pyridin-3-yl)-4-azaspiro[2.4]heptane-4-carbonyl)octahydro-1H-pyrrolo[1,2-a]azepin-6-yl)carbamoyl)benzo [b]thiophen-5-yl)methyl)(phenoxy)phosphoryl)-L-alaninate] | < 100 |
| CCCOC(=O)[C@H](C)NP(=O)(Oc1ccccc1)[C@H](F)c1ccc2ccc(C(=O)N[C@H]3CCCC[C@H]4CC[C@@H](C(=O)N5C[C@H](c6ccccc6)[C@@H](C#N)C56CC6)N4C3=O)cc2c1 (stereo partly drawn) [Compound 347, propyl (((S)-(7-(((3S,6S,10aS)-3-((6S,7R)-7-cyano-6-phenyl-4-azaspiro[2.4]heptane-4-carbonyl)-5-oxodecahydropyrrolo [1,2-a]azocin-6-yl)carbamoyl)naphthalen-2-yl)fluoromethyl) (phenoxy)phosphoryl)-L-alaninate] | < 100 |
| CCCOC(=O)[C@H](C)NP(=O)(Oc1ccccc1)C(F)c1ccc2sc(C(=O)N[C@H]3CCCC[C@H]4CC[C@@H](C(=O)N5CC(c6cccnc6)CC56CC6)N4C3=O)cc2c1 (stereo partly drawn) [Compound 448, propyl ((fluoro(2-(((3S,6S,10aS)-5-oxo-3-(6-(pyridin-3-yl)-4-azaspiro[2.4]heptane-4-carbonyl)decahydropyrrolo[1,2-a]azocin-6-yl)carbamoyl)benzo [b]thiophen-5-yl)methyl)(phenoxy)phosphoryl)-L-alaninate] | < 100 |
| CCCOC(=O)[C@H](C)NP(=O)(Oc1ccccc1)C(F)c1ccc2ccc(C(=O)N[C@H]3CCC[C@H]4CC[C@@H](C(=O)N5CC(c6cccnc6)CC56CC6)N4C3=O)cc2c1 (stereo partly drawn) [Compound 453, propyl ((fluoro(7-(((3S,6S,9aS)-5-oxo-3-(6-(pyridin-3-yl)-4-azaspiro[2.4]heptane-4-carbonyl)octahydro-1H-pyrrolo[1,2-a]azepin-6-yl)carbamoyl)naphthalen-2-yl)methyl)(phenoxy)phosphoryl)-L-alaninate] | 100 to 1000 |
| CCCOC(=O)[C@H](C)NP(=O)(Oc1ccccc1)C(F)c1ccc2sc(C(=O)N[C@H]3CCCC[C@H]4CC[C@@H](C(=O)N5C(=O)N(c6cccnc6)C(=O)C56CCC6)N4C3=O)cc2c1 (stereo partly drawn) [Compound 992, propyl (((2-(((3S,6S,10aS)-3-(6,8-dioxo-7-(pyridin-3-yl)-5,7-diazaspiro[3.4]octane-5-carbonyl)-5-oxodecahydropyrrolo [1,2-a]azocin-6-yl)carbamoyl)benzo [b]thiophen-5-yl)fluoromethyl) (phenoxy)phosphoryl)-L-alaninate] | 100 to 1000 |
| CCCOC(=O)[C@H](C)NP(=O)(Oc1ccccc1)C(F)c1ccc2sc(C(=O)N[C@H]3CCCC[C@H]4CC[C@@H](C(=O)N5CCC(O)(c6ccn(C)c(=O)c6)C5)N4C3=O)cc2c1 (stereo partly drawn) [Compound 466, propyl ((fluoro(2-(((3S,6S,10aS)-3-(3-hydroxy-3-(1-methyl-2-oxo-1,2-dihydropyridin-4-yl)pyrrolidine-1-carbonyl)-5-oxodecahydropyrrolo [1,2-a]azocin-6-yl)carbamoyl)benzo [b]thiophen-5-yl)methyl)(phenoxy)phosphoryl)-L-alaninate] | > 3000 |
| CCCOC(=O)[C@H](C)NP(=O)(Oc1ccccc1)[C@H](F)c1ccc2sc(C(=O)N[C@H]3C[C@@H](C)C[C@H]4CC[C@@H](C(=O)N5C[C@H](c6ccccc6)[C@@H](C#N)C56CC6)N4C3=O)cc2c1 (stereo partly drawn) [Compound 349, propyl (((S)-(2-(((3S,6S,8R,9aR)-3-((6S,7R)-7-cyano-6-phenyl-4-azaspiro[2.4]heptane-4-carbonyl)-8-methyl-5-oxooctahydro-1H-pyrrolo[1,2-a]azepin-6-yl)carbamoyl)benzo [b]thiophen-5-yl)fluoromethyl) (phenoxy)phosphoryl)-L-alaninate] | < 100 |
| CCCOC(=O)[C@H](C)NP(=O)(Oc1ccccc1)C(F)c1ccc2ccc(C(=O)N[C@H]3CCCC[C@H]4CC[C@@H](C(=O)N5C[C@@H](c6ccn(C)c(=O)c6)CC56CC6)N4C3=O)cc2c1 (stereo partly drawn) [Compound 441, propyl ((fluoro(7-(((3S,6S,10aS)-3-((R)-6-(1-methyl-2-oxo-1,2-dihydropyridin-4-yl)-4-azaspiro[2.4]heptane-4-carbonyl)-5-oxodecahydropyrrolo [1,2-a]azocin-6-yl)carbamoyl)naphthalen-2-yl)methyl)(phenoxy)phosphoryl)-L-alaninate] | < 100 |

Same assay, conditions: read-out: STAT6; PBMC, compound 3 hrs, then 1 ng/mL IL-4 for 10 min; Table 115

| SMILES | IC50 [nM] |
| --- | --- |
| CCCOC(=O)[C@H](C)NP(=O)(Oc1ccccc1)[C@@H](F)c1ccc2sc(C(=O)N[C@H]3CCC[C@H]4CC[C@@H](C(=O)N5C[C@@H](c6cccc(C)c6)[C@H](C#N)C56CC6)N4C3=O)cc2c1 (single isomer, unassigned) [Compound 342] | < 100 |
